We go through 18 compounds from ChEMBL document CHEMBL3992513, “Synthesis, anti-inflammatory, cyclooxygenases inhibitions assays and histopathological study of poly-substituted 1,3,5-triazines: Confirmation of regiospecific pyrazole cyclization by HMBC” (Eur J Med Chem, 2017).

Data set [1] relates to Rattus norvegicus. The experiment in a line: Anti-inflammatory activity in Wistar albino rat assessed as inhibition of carragenan-induced paw edema thickness at 50 mg/kg, po measured after 1 hr relative to control. The format is functional.
Data set [2] concerns the target T1, Prostaglandin G/H synthase 1 (Ovis aries, UniProt P05979).
T1 sequence (P05979 whole entry): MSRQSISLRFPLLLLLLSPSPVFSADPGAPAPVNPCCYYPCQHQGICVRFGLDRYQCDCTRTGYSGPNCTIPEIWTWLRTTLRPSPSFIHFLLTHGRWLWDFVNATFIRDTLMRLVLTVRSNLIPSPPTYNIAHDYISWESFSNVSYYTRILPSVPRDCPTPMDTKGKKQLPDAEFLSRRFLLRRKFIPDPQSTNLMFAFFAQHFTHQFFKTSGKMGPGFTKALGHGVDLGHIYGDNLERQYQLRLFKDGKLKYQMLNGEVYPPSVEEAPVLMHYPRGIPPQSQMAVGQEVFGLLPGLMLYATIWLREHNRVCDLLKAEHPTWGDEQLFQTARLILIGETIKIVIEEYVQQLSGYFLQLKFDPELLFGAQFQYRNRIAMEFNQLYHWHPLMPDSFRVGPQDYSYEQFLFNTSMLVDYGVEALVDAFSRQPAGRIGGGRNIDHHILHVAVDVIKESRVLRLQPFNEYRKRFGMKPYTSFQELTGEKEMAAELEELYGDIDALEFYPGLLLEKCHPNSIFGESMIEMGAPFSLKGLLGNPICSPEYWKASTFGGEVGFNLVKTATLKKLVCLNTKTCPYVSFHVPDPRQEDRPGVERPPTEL
The experiment in a line: Inhibition of ovine COX1 using arachidonic acid as substrate preincubated for 5 mins followed by substrate addition measured after 2 mins by enzyme immunoassay.

For data set [3], the system named is Rattus norvegicus. The experiment in a line: Anti-inflammatory activity in Wistar albino rat assessed as inhibition of carragenan-induced paw edema thickness at 50 mg/kg, po measured after 5 hrs relative to control. The format is functional.
For data set [4], the system named is Rattus norvegicus. In words: Anti-inflammatory activity in Wistar albino rat assessed as inhibition of carragenan-induced paw edema thickness at 50 mg/kg, po measured after 3 hrs relative to control. It is filed as functional.
Data set [5] relates to Rattus norvegicus. The experiment in a line: Ulcerogenicity in Wistar albino rat model of carragenan-induced paw edema assessed as hyalinosis and coagulative necrosis of muscular layer in stomach at 50 mg/kg, po by hematoxylin and eosin staining based histopathological analysis. It is filed as toxicity, organism-based. The settings on record: in vivo.
Data set [6] deals with Rattus norvegicus. The experiment in a line: Ulcerogenicity in Wistar albino rat model of carragenan-induced paw edema assessed as leucocytic infiltration in sub mucosa at 50 mg/kg, po by hematoxylin and eosin staining based histopathological analysis. The format is toxicity, organism-based. The settings on record: in vivo.
For data set [7], the system named is Rattus norvegicus. The experiment in a line: Ulcerogenicity in Wistar albino rat model of carragenan-induced paw edema assessed as degenrative changes with necrotic changes in gastric mucosa at 50 mg/kg, po by hematoxylin and eosin staining based histopathological analysis. The format is toxicity, organism-based. The settings on record: in vivo.
Data set [8] concerns Rattus norvegicus. In words: Ulcerogenicity in Wistar albino rat model of carragenan-induced paw edema assessed as blood vessel congestion with edema in sub-mucosa at 50 mg/kg, po by hematoxylin and eosin staining based histopathological analysis. It is filed as toxicity, organism-based. The settings on record: in vivo.
In data set [9] the test system is Rattus norvegicus. The experiment in a line: Ulcerogenicity in Wistar albino rat model of carragenan-induced paw edema assessed as blood vessel dilation in sub-mucosa at 50 mg/kg, po by hematoxylin and eosin staining based histopathological analysis. The format is toxicity, organism-based. The settings on record: in vivo.
For data set [10], the system named is Rattus norvegicus. The experiment in a line: Ulcerogenicity in Wistar albino rat model of carragenan-induced paw edema assessed as corrugations of muscular layer in stomach at 50 mg/kg, po by hematoxylin and eosin staining based histopathological analysis. It is filed as toxicity, organism-based. The settings on record: in vivo.

pIC50: −log10 of the molar value.

What is called inhibition in vivo is the share of the control response that was lost under treatment. Usually pIC50 stands for −log10 of the IC50, conventionally taken in molar units. A higher pIC50 goes with a low IC50. Take `CC(=O)c1ccc(Nc2nc(N3CCOCC3)nc(N3CCOCC3)n2)cc1`: the inhibition in vivo at 50 mg/kg with Rattus norvegicus [1] turned out to be 21%; in the data set on Rattus norvegicus [3] it was 0%; in the data set with Rattus norvegicus [4], 8%. In addition, the pIC50 in [2] was 5.23.

`CN(C)/C=C/C(=O)c1ccc(Nc2nc(N3CCOCC3)nc(N3CCOCC3)n2)cc1`: the Activity entry in the data set with Rattus norvegicus [5], with Rattus norvegicus [6] and in the data set on Rattus norvegicus [7] was “Toxic” each time. In data set [2], this compound gave a negative-log IC50 (pIC50) of 5.40.

Consider `COc1cc(/C=C/C(=O)c2ccc(Nc3nc(N4CCOCC4)nc(N4CCOCC4)n3)cc2)cc(OC)c1OC`, for which the Activity entry in the data set on Rattus norvegicus [5] is “Non-Toxic”; in the data set with Rattus norvegicus [8], “Toxic”; in the data set with Rattus norvegicus [6], “Non-Toxic”; in the data set on Rattus norvegicus [7], “Non-Toxic”. Moreover, the inhibition in vivo at 50 mg/kg is 58% in the data set on Rattus norvegicus [1], 15% in the data set on Rattus norvegicus [3] and 18% in the data set with Rattus norvegicus [4]. The compound further showed a pIC50 in data set [2] of 5.33.

In the case of `CS(=O)(=O)c1ccc(-n2nccc2-c2ccc(Nc3nc(N4CCOCC4)nc(N4CCOCC4)n3)cc2)cc1`, the Activity result in the data set on Rattus norvegicus [5] and with Rattus norvegicus [7] was “Non-Toxic” each time. The compound further showed a pIC50 in [2] of 5.41.

In data set [2], `c1cc(-c2ccc(Nc3nc(N4CCOCC4)nc(N4CCOCC4)n3)cc2)[nH]n1` showed a pIC50 of 5.28.

As for `c1cc(-c2ccc(Nc3nc(N4CCOCC4)nc(N4CCOCC4)n3)cc2)on1`, in data set [2], the pIC50 was 5.36.

For `c1ccc(-n2nccc2-c2ccc(Nc3nc(N4CCCCC4)nc(N4CCCCC4)n3)cc2)cc1`, the inhibition in vivo at 50 mg/kg stood at 32% in the data set on Rattus norvegicus [1], 2% in the data set on Rattus norvegicus [3] and 18% in the data set on Rattus norvegicus [4]. In addition, the pIC50 in data set [2] was 5.19.

Take `CS(=O)(=O)c1ccc(-n2nccc2-c2ccc(Nc3nc(N4CCCCC4)nc(N4CCCCC4)n3)cc2)cc1`: the inhibition in vivo at 50 mg/kg is 36% with Rattus norvegicus [1], 20% with Rattus norvegicus [3] and 38% in the data set on Rattus norvegicus [4]. For the same compound, the pIC50 in [2] was 5.10.

On to `CN(C)/C=C/C(=O)c1ccc(Nc2nc(N3CCCCC3)nc(N3CCCCC3)n2)cc1`, for which the inhibition in vivo at 50 mg/kg with Rattus norvegicus [1] was determined as 19%; in the data set on Rattus norvegicus [3], 20%; in the data set on Rattus norvegicus [4], 14%. Also, the negative logarithm of the IC50 (pIC50) in data set [2] is 5.16.

Regarding `c1cc(-c2ccc(Nc3nc(N4CCCCC4)nc(N4CCCCC4)n3)cc2)on1`, the inhibition in vivo at 50 mg/kg in the data set with Rattus norvegicus [1] worked out at 51%; in the data set with Rattus norvegicus [3], 25%; in the data set with Rattus norvegicus [4] it was 26%. The same compound gave a pIC50 in data set [2] of 5.14.

With `c1cc(-c2ccc(Nc3nc(N4CCCCC4)nc(N4CCCCC4)n3)cc2)[nH]n1`, the inhibition in vivo at 50 mg/kg with Rattus norvegicus [1] turned out to be 58%; in the data set on Rattus norvegicus [3], 5%; in the data set with Rattus norvegicus [4], 24%. In data set [2], the pIC50 is 5.31.

With `c1ccc(-n2nccc2-c2ccc(Nc3nc(N4CCOCC4)nc(N4CCOCC4)n3)cc2)cc1`, the Activity entry in the data set with Rattus norvegicus [5], in the data set on Rattus norvegicus [8], with Rattus norvegicus [6] and with Rattus norvegicus [7] was “Toxic” in each case. Moreover, the pIC50 in [2] was 5.30.

Regarding `COc1cc(C2CC(c3ccc(Nc4nc(N5CCCCC5)nc(N5CCCCC5)n4)cc3)=NN2C(C)=O)cc(OC)c1OC` (stereo unspecified), the figures for the inhibition in vivo at 50 mg/kg in the data set on Rattus norvegicus [1], with Rattus norvegicus [3] and in the data set on Rattus norvegicus [4] were 45%, 2% and 34%, respectively. Moreover, the negative-log IC50 (pIC50) in [2] is 5.45. For the same compound, the Activity entry with Rattus norvegicus [6] and in the data set with Rattus norvegicus [7] was “Toxic” in each case.

Take `COc1cc(/C=C/C(=O)c2ccc(Nc3nc(N4CCCCC4)nc(N4CCCCC4)n3)cc2)cc(OC)c1OC`: the pIC50 in data set [2] was 5.14.

On to `COc1cc(C2CC(c3ccc(Nc4nc(N5CCOCC5)nc(N5CCOCC5)n4)cc3)=NN2C(C)=O)cc(OC)c1OC` (stereo unspecified), for which the negative logarithm of the IC50 (pIC50) in data set [2] is 5.06.

`CC(=O)c1ccc(Nc2nc(N3CCCCC3)nc(N3CCCCC3)n2)cc1` had a pIC50 in data set [2] of 5.08.

`Cc1ccc(-c2cc(C(F)(F)F)nn2-c2ccc(S(N)(=O)=O)cc2)cc1` [CELECOXIB]: the values for the inhibition in vivo at 50 mg/kg in the data set on Rattus norvegicus [1], in the data set with Rattus norvegicus [3] and with Rattus norvegicus [4] were 77%, 20% and 72%, respectively. For the same compound, the Activity result with Rattus norvegicus [6], in the data set on Rattus norvegicus [7], with Rattus norvegicus [9] and with Rattus norvegicus [10] was “Toxic” in each case.

For the compound `COc1ccc2c(c1)c(CC(=O)O)c(C)n2C(=O)c1ccc(Cl)cc1` [INDOMETHACIN], the Activity entry with Rattus norvegicus [5], with Rattus norvegicus [6], in the data set on Rattus norvegicus [7] and in the data set with Rattus norvegicus [9] was “Toxic” each time.
